# Values quoted from earlier work, collected in US8491930B2, “Pharmaceutical formulation containing ibuprofen and codeine” (Farmasierra Manufacturing, S.L., priority 2008, dated 2013).
compound,measurement,value
"COc1ccc2c3c1OC1C(O)C=C[C@H]4[C@@H](C2)N(C)CC[C@]314 (stereo partly shown) [Codeine phosphate, 7,8-didehydro-4,5-epoxy-3-methoxy-17-methyl-morphinan-6-ol]",Solubility in water,soluble in water
